Results reported in patent US20090306133A1, “New Acetyl Coenzyme A Carboxylase (ACC) Inhibitors And Uses In Treatments Of Obesity And Diabetes Mellitus - 087” (ASTRAZENECA AB, priority 2007, published 2009).

Columns and labels:
[1] = biological target: Human recombinant Acetyl-CoA Carboxylase 2 (ACC2) (Homo sapiens, UniProt O00763); experiment: Assay X: ACC2 inhibition, inorganic phosphate (malachite green); assay type: biochemical; conditions: Assay X: 37° C., 1.5 h, 5 min pre-incubation
How it was run: (§1)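 Human recombinant enzyme pre-incubated 5 min with compound before substrate addition; reaction run 1.5 h, then inorganic phosphate detected by malachite green absorbance at 660 nm. Ten concentrations tested in triplicate; apparent IC50 from four-parameter curve fit.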

[2] = biological target: Human recombinant Acetyl-CoA Carboxylase 1 (ACC1) (Homo sapiens, UniProt Q13085); experiment: Assay X: ACC1 inhibition, inorganic phosphate (malachite green); assay type: biochemical; conditions: Assay X: 37° C., 1.5 h, 5 min pre-incubation
How it was run: as §1

Sequence of Human recombinant Acetyl-CoA Carboxylase 2 (ACC2) (O00763 whole entry): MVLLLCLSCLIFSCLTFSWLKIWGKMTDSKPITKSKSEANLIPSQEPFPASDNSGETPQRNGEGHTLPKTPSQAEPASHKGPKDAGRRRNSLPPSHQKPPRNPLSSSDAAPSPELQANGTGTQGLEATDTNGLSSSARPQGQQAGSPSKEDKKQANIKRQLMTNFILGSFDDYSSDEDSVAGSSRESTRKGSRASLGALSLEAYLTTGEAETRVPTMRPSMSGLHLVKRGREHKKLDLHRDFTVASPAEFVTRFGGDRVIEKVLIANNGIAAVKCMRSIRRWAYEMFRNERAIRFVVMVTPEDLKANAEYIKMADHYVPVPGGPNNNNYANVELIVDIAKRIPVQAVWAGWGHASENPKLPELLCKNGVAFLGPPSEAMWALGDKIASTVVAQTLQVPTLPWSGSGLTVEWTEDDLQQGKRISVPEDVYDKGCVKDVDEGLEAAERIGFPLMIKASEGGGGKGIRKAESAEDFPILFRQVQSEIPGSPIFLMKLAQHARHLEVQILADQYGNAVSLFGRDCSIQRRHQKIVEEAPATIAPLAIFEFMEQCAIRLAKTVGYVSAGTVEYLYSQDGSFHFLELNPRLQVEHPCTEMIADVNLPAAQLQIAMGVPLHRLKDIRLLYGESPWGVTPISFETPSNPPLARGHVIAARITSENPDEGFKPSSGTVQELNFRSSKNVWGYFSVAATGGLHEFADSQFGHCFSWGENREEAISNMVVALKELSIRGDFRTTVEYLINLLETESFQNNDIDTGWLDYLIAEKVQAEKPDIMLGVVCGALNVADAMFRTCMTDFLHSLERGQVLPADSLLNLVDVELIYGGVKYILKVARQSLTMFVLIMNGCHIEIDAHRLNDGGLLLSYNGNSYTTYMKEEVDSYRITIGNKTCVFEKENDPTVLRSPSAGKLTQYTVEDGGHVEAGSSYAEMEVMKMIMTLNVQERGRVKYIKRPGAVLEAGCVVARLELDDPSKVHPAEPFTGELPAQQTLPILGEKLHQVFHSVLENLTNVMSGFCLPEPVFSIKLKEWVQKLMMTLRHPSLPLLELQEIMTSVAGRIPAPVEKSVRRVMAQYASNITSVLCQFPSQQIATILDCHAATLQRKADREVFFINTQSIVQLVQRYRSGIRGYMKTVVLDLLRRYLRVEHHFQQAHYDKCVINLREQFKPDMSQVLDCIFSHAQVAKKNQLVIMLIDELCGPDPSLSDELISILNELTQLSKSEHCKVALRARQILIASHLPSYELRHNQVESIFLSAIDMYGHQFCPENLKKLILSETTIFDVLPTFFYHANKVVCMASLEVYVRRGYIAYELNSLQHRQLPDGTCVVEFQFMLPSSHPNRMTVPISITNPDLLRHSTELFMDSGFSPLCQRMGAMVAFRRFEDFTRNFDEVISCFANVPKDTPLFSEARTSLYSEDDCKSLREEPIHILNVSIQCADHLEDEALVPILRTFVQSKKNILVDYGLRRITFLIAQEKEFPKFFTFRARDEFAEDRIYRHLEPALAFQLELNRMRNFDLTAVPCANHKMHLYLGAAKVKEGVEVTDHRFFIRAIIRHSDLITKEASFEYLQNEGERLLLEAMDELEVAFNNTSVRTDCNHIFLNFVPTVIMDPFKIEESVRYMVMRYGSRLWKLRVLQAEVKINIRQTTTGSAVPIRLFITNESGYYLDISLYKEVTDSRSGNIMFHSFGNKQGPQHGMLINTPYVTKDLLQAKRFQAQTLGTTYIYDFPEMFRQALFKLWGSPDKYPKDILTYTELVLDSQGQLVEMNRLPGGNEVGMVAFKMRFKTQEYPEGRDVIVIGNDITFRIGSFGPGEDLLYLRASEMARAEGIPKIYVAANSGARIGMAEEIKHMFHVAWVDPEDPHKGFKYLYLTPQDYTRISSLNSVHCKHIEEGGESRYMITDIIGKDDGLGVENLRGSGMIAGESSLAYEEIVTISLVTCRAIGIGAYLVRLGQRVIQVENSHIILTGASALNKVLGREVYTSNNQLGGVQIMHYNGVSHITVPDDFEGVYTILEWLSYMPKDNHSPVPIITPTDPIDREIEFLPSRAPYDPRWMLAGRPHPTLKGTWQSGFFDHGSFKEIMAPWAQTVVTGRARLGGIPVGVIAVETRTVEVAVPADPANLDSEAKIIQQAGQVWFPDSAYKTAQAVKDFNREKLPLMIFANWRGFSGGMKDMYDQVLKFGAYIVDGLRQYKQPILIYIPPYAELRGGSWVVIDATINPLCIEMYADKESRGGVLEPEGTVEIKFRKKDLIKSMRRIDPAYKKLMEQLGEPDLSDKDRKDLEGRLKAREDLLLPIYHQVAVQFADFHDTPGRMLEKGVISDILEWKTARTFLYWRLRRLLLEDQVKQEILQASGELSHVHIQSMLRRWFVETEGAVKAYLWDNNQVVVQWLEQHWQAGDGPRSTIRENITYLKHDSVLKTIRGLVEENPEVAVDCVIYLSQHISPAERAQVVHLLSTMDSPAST

SMILES: CN(C)[C@H]1CCN(c2ccc(-c3cc(C(=O)NC[C@H]4CC[C@H](CNC(=O)OC(C)(C)C)CC4)c4ccccc4n3)cn2)C1 [Example 160, tert-Butyl{[trans-4-({[(2-{6-[(3S)-3-(dimethylamino)-pyrrolidin-1-yl]pyridin-3-yl}quinolin-4-yl)-carbonyl]amino}methyl)cyclohexyl]methyl}carbamate]
- IC50 [1]: 70 nM
- IC50 [2]: 220 nM

SMILES: CN(C)CCOc1ccc(-c2cc(C(=O)NC[C@H]3CC[C@H](CNC(=O)OC(C)(C)C)CC3)c3ccccc3n2)cc1 [Example 203, tert-Butyl {[trans-4-({[(2-{4-[2-(dimethylamino)ethoxy]phenyl}quinolin-4-yl)carbonyl]amino}methyl)cyclohexyl]methyl}carbamate]
- IC50 [1]: 150 nM
- IC50 [2]: 630 nM

SMILES: CC(C)(C)OC(=O)NC[C@H]1CC[C@H](CNC(=O)c2cc(-c3ccc(NCCOCCO)nc3)nc3ccccc23)CC1 [Example 155, tert-Butyl({trans-4-[({[2-(6-{[2-(2-hydroxyethoxy)ethyl]amino}pyridin-3-yl)quinolin-4-yl]-carbonyl}amino)-methyl]cyclohexyl}methyl)carbamate]
- IC50 [1]: 410 nM
- IC50 [2]: 1100 nM

SMILES: CC(C#N)OC(=O)NC[C@H]1CC[C@H](CNC(=O)c2cc(-c3ccc(N4CCN(C)CC4)nc3)nc3ccccc23)CC1 (stereo partly drawn) [Example 121, 1-Cyanoethyl[(trans-4-{[({2-[6-(4-methylpiperazin-1-yl)pyridin-3-yl]quinolin-4-yl}carbonyl)amino]methyl}cyclohexyl)methyl]carbamate]
- IC50 [1]: 1370 nM
- IC50 [2]: 4770 nM

SMILES: CC(C)(C)OC(=O)NC[C@H]1CC[C@H](CNC(=O)c2cc(-c3ccc(N4CCC(O)CC4)nc3)nc3ccccc23)CC1 [Example 151, tert-Butyl[(trans-4-{[({2-[6-(4-hydroxypiperidin-1-yl)pyridin-3-yl]-quinolin-4-yl}-carbonyl)amino]methyl}cyclohexyl)methyl]carbamate]
- IC50 [1]: 160 nM
- IC50 [2]: 610 nM

SMILES: CC(C)(C)OC(=O)NC[C@H]1CC[C@H](CNC(=O)c2cc(-c3ccc(N4CCC(C(N)=O)CC4)nc3)nc3ccccc23)CC1 [Example 153, tert-Butyl[(trans-4-{[({2-[6-(4-carbamoylpiperidin-1-yl)pyridin-3-yl]-quinolin-4-yl}carbonyl)amino]-methyl}cyclohexyl)methyl]carbamate]
- IC50 [1]: 130 nM
- IC50 [2]: 230 nM

SMILES: CC(C)(C)OC(=O)NC[C@H]1CC[C@H](CNC(=O)c2cc(-c3cn[nH]c3)nc(-c3cccc(CN)c3)c2)CC1 [Example 239, tert-Butyl [(trans-4-{[({2-[3-(aminomethyl)phenyl]-6-(1H-pyrazol-4-yl)pyridin-4-yl}carbonyl)amino]methyl}cyclohexyl)methyl]carbamate]
- IC50 [1]: 350 nM
- IC50 [2]: 740 nM

SMILES: CC(C)(C)OC(=O)NC[C@H]1CC[C@H](CNC(=O)c2cc(N3CCC(CC(O)CN4CCOCC4)CC3)nc3ccccc23)CC1 (single isomer, unassigned) [Example 208, (R) or (S) tert-Butyl [(trans-4-{[({2-[4-(2-hydroxy-3-morpholin-4-ylpropyl)piperidin-1-yl]quinolin-4-yl}-carbonyl)amino]methyl}cyclohexyl)methyl]-carbamate]
- IC50 [1]: 170 nM
- IC50 [2]: 1100 nM

SMILES: O=C(NC[C@H]1CC[C@H](CNC(=O)c2cc(-c3ccc(N4CC[C@@H](O)C4)nc3)nc3ccccc23)CC1)O[C@H]1CCOC1 [Example 201, (3S)-Tetrahydrofuran-3-yl {[trans-4-({[(2-{6-[(3R)-3-hydroxypyrrolidin-1-yl]pyridin-3-yl}quinolin-4-yl)carbonyl]amino}methyl)cyclohexyl]methyl}-carbamate]
- IC50 [1]: 850 nM
- IC50 [2]: 2170 nM

SMILES: CN(C)CCC1CCN(c2cc(C(=O)NC[C@H]3CC[C@H](CNC(=O)OC4CCOCC4)CC3)c3ccccc3n2)CC1 [Example 224, Tetrahydro-2H-pyran-4-yl {[trans-4-({[(2-{4-[2-(dimethylamino)ethyl]piperidin-1-yl}quinolin-4-yl)carbonyl]amino}methyl)cyclohexyl]methyl}carbamate]
- IC50 [1]: 680 nM
- IC50 [2]: 6310 nM

SMILES: Cc1nc(CNc2ccc(-c3cc(C(=O)NC[C@H]4CC[C@H](CNC(=O)OC(C)(C)C)CC4)c4ccccc4n3)cn2)no1 [Example 170, tert-Butyl({trans-4-[({[2-(6-{[(5-methyl-1,2,4-oxadiazol-3-yl)methyl]amino}-pyridin-3-yl)quinolin-4-yl]carbonyl}amino)-methyl]cyclohexyl}-methyl)carbamate]
- IC50 [1]: 480 nM
- IC50 [2]: 1200 nM

SMILES: CC(C)(C)OC(=O)NC[C@H]1CC[C@H](CNC(=O)c2cc(-c3ccc(N)nc3)nc(-c3cccc(CN)c3)c2)CC1 [Example 241, tert-Butyl [(trans-4-{[({6′-amino-6-[3-(aminomethyl)phenyl]-2,3′-bipyridin-4-yl}carbonyl)amino]methyl}cyclohexyl)methyl]carbamate]
- IC50 [1]: 110 nM
- IC50 [2]: 260 nM

SMILES: CCNC(=O)Nc1sc2ccccc2c1C(=O)NC[C@H]1CC[C@H](CNC(=O)OC(C)(C)C)CC1 [Example 223, tert-Butyl [(trans-4-{[({2-[(ethylcarbamoyl)amino]-1-benzothiophen-3-yl}carbonyl)amino]methyl}cyclohexyl)methyl]carbamate]
- IC50 [1]: 230 nM
- IC50 [2]: 1160 nM

SMILES: CN1CCN(c2ccc(-c3cc(C(=O)NC[C@H]4CC[C@H](CNC(=O)OCC5CCOC5)CC4)c4ccccc4n3)cn2)CC1 (stereo partly drawn) [Example 126, Tetrahydrofuran-3-ylmethyl[(trans-4-{[({2-[6-(4-methylpiperazin-1-yl)pyridin-3-yl]quinolin-4-yl}carbonyl)amino]methyl}cyclohexyl)methyl]carbamate]
- IC50 [1]: 420 nM
- IC50 [2]: 1670 nM

SMILES: CN1CCN(c2ccc(-c3cc(C(=O)NC[C@H]4CC[C@H](CNC(=O)OCC5CCCO5)CC4)c4ccccc4n3)cn2)CC1 (stereo partly drawn) [Example 127, Tetrahydrofuran-2-ylmethyl[(trans-4-{[({2-[6-(4-methylpiperazin-1-yl)pyridin-3-yl]quinolin-4-yl}carbonyl)amino]methyl}cyclohexyl)methyl]carbamate]
- IC50 [1]: 880 nM
- IC50 [2]: 3780 nM

SMILES: CC(C)(C)OC(=O)NC[C@H]1CC[C@H](CNC(=O)c2cc(N3CCC(CCN4CCC4)CC3)nc3ccccc23)CC1 [Example 234, tert-Butyl [(trans-4-{[({2-[4-(2-azetidin-1-ylethyl)piperidin-1-yl]quinolin-4-yl}carbonyl)amino]methyl}cyclohexyl)methyl]carbamate]
- IC50 [1]: 110 nM
- IC50 [2]: 950 nM

SMILES: CC(C)(C)OC(=O)NC[C@H]1CC[C@H](CNC(=O)c2cc(N3CCC(CCN4CCCC4)CC3)nc3ccccc23)CC1 [Example 231, tert-Butyl[(trans-4-{[({2-[4-(2-pyrrolidin-1-ylethyl)piperidin-1-yl]quinolin-4-yl}carbonyl)amino]-methyl}cyclohexyl)-methyl]carbamate]
- IC50 [1]: 80 nM
- IC50 [2]: 700 nM

SMILES: Cn1cc(CNc2ccc(-c3cc(C(=O)NC[C@H]4CC[C@H](CNC(=O)OC(C)(C)C)CC4)c4ccccc4n3)cn2)cn1 [Example 166, tert-Butyl({trans-4-[({[2-(6-{[(1-methyl-1H-pyrazol-4-yl)methyl]amino}-pyridin-3-yl)quinolin-4-yl]carbonyl}amino)-methyl]cyclohexyl}methyl)carbamate]
- IC50 [1]: 410 nM
- IC50 [2]: 820 nM

SMILES: CC(C)(C)OC(=O)NC[C@H]1CC[C@H](CNC(=O)c2cc(-c3ccc(N4CCCC(O)C4)nc3)nc3ccccc23)CC1 (relative stereo) [Example 157, tert-Butyl[(trans-4-{[({2-[6-(3-hydroxypiperidin-1-yl)pyridin-3-yl]-quinolin-4-yl}carbonyl)amino]methyl}cyclohexyl)methyl]carbamate]
- IC50 [1]: 180 nM
- IC50 [2]: 410 nM
